Entries after “also recorded” stand apart in the source; their conditions may differ.

Results on one compound are retold here after patent publication US20160287553A1, “TRANSLATION INHIBITORS IN HIGH-DOSE CHEMO- AND/OR HIGH-DOSE RADIOTHERAPY” (DEUTSCHES KREBSFORSCHUNGSZENTRUM, priority 2013, published 2016).

Assay [1] concerns EU-3 (acute lymphoblastic leukemia), WT p53. In words: Etoposide-induced cell death in EU-3. The class given is cell-based, human. To be noted: EU-3 (FIG. 5b). Here is the method:
(§1) DNA fragmentation was determined by FACS.
(§2) Since Roc-A-mediated protection of non-malignant cells from DNA-damage-induced cell death is largely p53-dependent, we predicted that Roc-A would not protect cancer cells which have non-functional p53. […] 1997; 19: 243-253), Reh (Zhou et al, loc cit.), SKW6.4 (Barbarotto et al., J Cell Biochem. 2008; 104: 595-605) and NCI-H209 (Fujita et al. Int J Oncol. 1999; 15: 927-934) which have a WT p53 protein.

Assay [2] has as its system Peripheral blood T cells. In words: Etoposide-induced apoptotic cell death of T cells (DNA fragmentation, AnnexinV, FSC/SSC). As to the method:
The human malignant cell lines EU-3 (acute lymphoblastic leukemia), DND-41 (T cell leukemia), Hut-78 (T cell lymphoma), SKW6.4 (B cell leukemia), Reh (acute lymphoblastic leukemia), IM-9 (Chronic myeloid leukemia), HL-60 (promyelocytic leukemia), L1236 (Hodgkin's lymphoma) and NCI-H209 (small cell lung cancer) were cultured at 37° C. with 5% CO2 in RPMI-1640 medium (Sigma-Aldrich, Munich, Germany) supplemented with 10% FCS, 100 U/ml Penicillin (Sigma-Aldrich, Munich, Germany) and 100 μg/ml Streptamycin (Sigma-Aldrich, Munich, Germany) SCLC-21H cells (small cell lung cancer) were cultured in DMEM medium (Sigma-Aldrich, Munich, Germany) supplemented with 10% FCS. Peripheral blood T lymphocytes were isolated as previously described (Klas et al., Int Immunol. 1993; 5: 625-630). B lymphocytes and NK cells were isolated by magnetic activated cell sorting using “B cell isolation kit II” (Miltenyi Biotech, Bergisch Gladbach, Germany) and “NK cell isolation kit, human” (Miltenyi Biotech, Bergisch Gladbach, Germany), respectively, according to the manufacturer's instructions. Human neutrophils were separated from peripheral blood mononuclear cells by Ficoll-Paque density centrifugation, followed by incubation in 1.05% dextran for 30 min at room temperature. Remaining erythrocytes were lysed by resuspension in ice-cold 0.2% sodium chloride solution. After 1 min ice-cold 1.6% sodium-chloride solution was added and lysis was stopped by addition of PBS and neutrophils were resuspended in medium at a concentration of 2×10^6 cells/ml. Human primary cardiomyocytes were purchased from PromoCell (Heidelberg, Germany) and cultured in Myocyte Growth Medium (PromoCell, Heidelberg, Germany). Remaining primary human cells were cultured in RPMI-1640 medium with the same conditions described above.
Apoptotic cell death was determined by AnnexinV staining, cellular forward scatter/side scatter (FSC/SSC) profile, or DNA fragmentation. For AnnexinV staining, 2×10^5 cells were treated with different drugs for indicated time periods, washed with AnnexinV binding buffer (0.01 M Hepes, 0.14 M NaCl, 2.5 mM CaCl2), and stained with AnnexinV-FITC antibody (Immunotools, Friesoythe, Germany) and 7-amino-actinomycin D (Sigma-Aldrich, Munich, Germany) for 30 min at 4° C. The amount of AnnexinV positive cells was determined by FACS measurement. DNA fragmentation was determined according to the method of Nicoletti (Nicoletti et al., J Immunol Methods. 1991; 139: 271-279). Briefly, 2×10^5 cells were treated as indicated, washed with PBS and lysed in Nicoletti buffer (0.1% sodium citrate, 0.1% Triton X-100, 50 μg/ml propidium iodide). DNA fragmentation was determined by FACS. Apoptosis-like cells were determined by forward scatter and side scatter (FSC/SSC) index. Specific DNA fragmentation/specific AnnexinV positive cells/specific apoptosis was calculated as follows: (percentage of experimental DNA fragmentation (or Annexin V positive cells or apoptosis)−percentage of spontaneous DNA fragmentation (or Annexin V positive cells or apoptosis)/(100−percentage of spontaneous DNA fragmentation (or Annexin V positive cells or apoptosis))×100.

The test system of assay [3] is Peripheral blood T cells. Description: Teniposide-, Doxorubicin- and Bleomycin-induced apoptotic cell death in T cells. To be noted: Roc-A 75 nM; increasing doses of the drugs (FIG. 1b). The class given is cell-based, human. Here is the method: as §1
(§3) The radioprotective effect mediated by Roc-A was the highest when cells were treated with Roc-A 1 h before radiation of cells (FIG. 1d). However, when cells were treated 4 h after radiation, the radioprotective effect was still higher than 50% (FIG. 1d).

For another assay, the system named is γ-H2AX. The class given is cell-based. To be noted: Roc-A 75 nM, T cells (FIG. 2a-b).
Assay [4] deals with Splenocytes from p53-/- mice. In words: Etoposide-induced cell death in p53 knock-out splenocytes. The class given is cell-based, mouse. To be noted: p53-KO splenocytes, 50 μM Etoposide, 75 nM Roc-A (FIG. 4b). Here is the method:
as §1
P53^−/− C57B1/6 mice (B6.Trp53tm1Tyj) were kindly provided by Liu H-K (German Cancer Research Center, Heidelberg, Germany). Spleens of 8-12 week old p53^−/−, and p53^+/+ mice were isolated in parallel, minced and incubated for 30 min in RPMI-1640 medium supplemented with DNase I (50 U/ml) and Collagenase IV (1 mg/ml) at 37° C. and 5% CO2. Splenocytes were filtered by […] cell strainer, washed twice with ice-cold wash buffer (PBS, 0.5% FCS, 2 mM EDTA) and resuspended in Oxford medium (RPMI 1640, 10% FCS, 100 μg/ml Penicillin, 100 μg/ml Streptamycin, 10 mM Hepes, 50 μM β-Mercaptoethanol, 2 mM L-glutamine, 1 mM sodium pyruvate, 100 μM non-essential amino acids) at a concentration of 2×10^6 cells/ml.
To further investigate the role of p53 in Roc-A-mediated protection of T cells against DNA damage-induced apoptosis, we performed a p53 knock-down experiment using a siRNA approach (FIG. 4a, upper panel). […] Therefore, we examined the effect of Roc-A on p53 knock-out (KO) cells.

The test system of a further assay is Primary human T cells. Description: Ionizing radiation (IR)-induced apoptosis in T cells. The class given is cell-based. Here is the method:
as §1, §3

For assay [5], the system named is SCLC-21H cells (small cell lung cancer), p53 mutated. In words: Etoposide-induced cell death in SCLC-21H. The class given is cell-based, human. To be noted: SCLC-21H (FIG. 5a). As to the method:
as §1, §2

In a further assay the test system is cardiomyocytes. Description: Etoposide-induced apoptosis in cardiomyocytes. The assay is classed as cell-based, human. Particulars: cardiomyocytes (FIG. 1c). Here is the method:
as §1
Next, we asked whether Roc-A could also protect other normal primary cells from DNA damage-induced toxicity. To address this question, we examined the protective effect of Roc-A on Etoposide-treated human peripheral blood B cells, NK cells, neutrophils, cardiomyocytes and murine hematopoietic stem and progenitor cells (HSPCs).

Procedure for γ-H2AX: DNA damage was determined by quantification of γ-H2AX foci formation and by alkaline single-cell gel electrophoresis assay (comet assay). For γ-H2AX staining, cells were treated as indicated, fixed in 3% formaldehyde and permeabilized in 90% methanol. Following storage at −20° C. overnight, cells were incubated with mouse serum to block unspecific binding and stained with antibody directed against γ-H2AX (AlexaFluor 488-coupled, 2F3 [BioLegend, Fell, Germany]), or with isotype control antibody (AlexaFluor 488-coupled [BioLegend, Fell, Germany]). The amount of γ-H2AX foci formation was determined by FACS measurement. […] Nuclei were stained with DAPI mounting medium (Dianova, Hamburg, Germany). Comet assays were carried out as previously described (Greve et al., PloS one. 2012; 7: e47185). Briefly, electrophoresis of cellular genomic DNA was performed under alkaline conditions at 4° C. The amount of DNA damage was measured by “Olive Tail Moment”. Analysis of cellular DNA damage was carried out by fluorescence microscopy, using a fully automated cell scanning system Metafer-4 (Metasystems, Altlutβheim, Germany).
To address this question, we determined the level of the DNA-damage marker γ-H2AX, which is generated around the site of a DNA double-strand break (Rogakou et al., J Biol Chem. 1998; 273: 5858-5868).

For `COc1ccc([C@@]23Oc4cc(OC)cc(OC)c4[C@]2(O)[C@H](O)[C@H](C(=O)N(C)C)[C@H]3c2ccccc2)cc1` [Roc-A, (1R,2R,3S,3aR,8bS)-1,8b-dihydroxy-6,8-dimethoxy-3a-(4-methoxyphenyl)-N,N-dimethyl-3-phenyl-2,3-dihydro-1H-cyclopenta[b][1]benzofuran-2-carboxamide], the “Protection against Etoposide-induced cell death” value was “protected by Roc-A from Etoposide-induced cell death but to a lesser extent than non-malignant cells” in assay [1], “abolished; also recorded: not statistically significant” in assay [4] and “did neither protect” in assay [5]. Also, in the assay on Peripheral blood T cells [2] (50 μM Etoposide, 75 nM Roc-derivative, 24 h (FIG. 6b)), the “Protection of normal T cells from Etoposide-induced cell death by Roc-derivatives” value was “different levels of protection”. Further, in the assay on Peripheral blood T cells [2] (50 μM Etoposide, different concentrations of Roc-A, indicated time-periods (FIG. 1a middle)), the “Toxicity of Etoposide, kinetic analysis” value is listed as “could reduce the toxicity of Etoposide at all measured time points”. Besides, in the assay with Peripheral blood T cells [2] (24 h, increasing concentrations of Etoposide, different concentrations of Roc-A, dose-dependent (FIG. 1a left, FIG. 7)), the “Reduction of Etoposide-induced cell death of normal T cells” value is on record as “more than 50%”. Further, in the assay with Peripheral blood T cells [2] (Roc-A added 2 and 4.5 h after Etoposide (50 μM) (FIG. 1a right)), the “Chemo-protective effect when Roc-A is administered after Etoposide” value is on record as “chemo-protective effect could be even seen”. Moreover, in the assay on Peripheral blood T cells [2] (Roc-A with Etoposide, FIG. 1a, FIG. 7), the “Protection of T cells from Etoposide-induced apoptotic cell death” value is “protects T cells from Etoposide-induced apoptotic cell death in a dose- and time-dependent manner; also recorded: reduces Etoposide-induced apoptosis in T cells”. In the assay with Peripheral blood T cells [3], the “Drug-induced apoptosis (Teniposide, Doxorubicin, Bleomycin)” value is “reduces Teniposide-, Doxorubicin- and Bleomycin-induced apoptotic cell death in T cells; also recorded: could reduce drug-induced apoptosis in all cases”. Besides, the “Effect on Etoposide-induced γ-H2AX foci formation” value with γ-H2AX was “does not prevent Etoposide-induced increase in γ-H2AX; also recorded: did not block Etoposide-induced γ-H2AX foci formation”. The “Radioprotective effect by time of Roc-A addition” value in the assay with Primary human T cells (Roc-A 1 h before radiation (10 Gy) (FIG. 1d)) is listed as “highest”. In addition, the “Radioprotective effect (percent of protection from IR-induced apoptosis)” value in the assay with Primary human T cells (Roc-A 4 h after radiation (10 Gy) (FIG. 1d)) is given as “higher than 50%”. Also, the “Ionizing radiation-induced apoptosis in T cells” value with Primary human T cells (increasing doses of IR, different concentrations of Roc-A, 24 h (FIG. 1e)) is “reduced ionizing radiation-induced apoptosis in T cells”. In addition, the “Protection against Etoposide-induced apoptosis” value with cardiomyocytes is on record as “protected”.
